Measured values from ChEMBL document CHEMBL1909046, “DrugMatrix in vitro pharmacology data”.

Experiments:
[1] = DRUGMATRIX: Sodium/nucleoside co-transporter radioligand binding (ligand: nitrobenzylthioinosine); assay type: cell membranes, Cavia porcellus, Dunkin-Hartley, Cerebral cortex, Membrane; conditions: Not Active = under 50% inhibition at 10 µM
[2] = molecular target: Vascular endothelial growth factor receptor 1 (Homo sapiens, UniProt P17948); assay type: cell-based; conditions: huvec; also: in other assays of this panel Not Active means under 50% inhibition at 10 µM
Leukotriene C4 synthase = molecular target: T1, Leukotriene C4 synthase (Cavia porcellus, UniProt A6XA80); experiment: biochemical; assay type: tissue-based, Lung;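 also: enzyme inhibition assay of leukotriene C4 synthase, using LTA4 as the substrate; in other assays of this panel Not Active means under 50% inhibition at 10 µM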
T1 sequence (A6XA80 whole entry): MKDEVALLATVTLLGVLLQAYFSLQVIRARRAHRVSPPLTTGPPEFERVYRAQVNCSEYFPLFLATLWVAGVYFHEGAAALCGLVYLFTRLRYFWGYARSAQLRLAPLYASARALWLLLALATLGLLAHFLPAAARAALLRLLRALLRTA

Melanocortin receptor 4 = Melanocortin receptor 4 (Homo sapiens, UniProt P32245); assay type: cell membranes, Membrane; conditions: hek293; also: in other assays of this panel Not Active means under 50% inhibition at 10 µM
[3] = DRUGMATRIX: Phosphodiesterase PDE3 enzyme inhibition (substrate: [3H]cAMP + cAMP); assay type: tissue-based, Homo sapiens; conditions: platelet; Not Active = under 50% inhibition at 10 µM
[4] = molecular target: Matrix metalloproteinase-9 (Homo sapiens, UniProt P14780); assay type: cell-based;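 also: inhibition of isolated MMP-9 enzyme activity toward a synthetic peptide substrate, from the DrugMatrix protease screening panel; in other assays of this panel Not Active means under 50% inhibition at 10 µM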
Adenosine receptor A1 = molecular target: T2, Adenosine receptor A1 (Homo sapiens, UniProt P30542); assay type: cell membranes, CHO, Membrane; conditions: cho
T2 sequence (P30542 whole entry): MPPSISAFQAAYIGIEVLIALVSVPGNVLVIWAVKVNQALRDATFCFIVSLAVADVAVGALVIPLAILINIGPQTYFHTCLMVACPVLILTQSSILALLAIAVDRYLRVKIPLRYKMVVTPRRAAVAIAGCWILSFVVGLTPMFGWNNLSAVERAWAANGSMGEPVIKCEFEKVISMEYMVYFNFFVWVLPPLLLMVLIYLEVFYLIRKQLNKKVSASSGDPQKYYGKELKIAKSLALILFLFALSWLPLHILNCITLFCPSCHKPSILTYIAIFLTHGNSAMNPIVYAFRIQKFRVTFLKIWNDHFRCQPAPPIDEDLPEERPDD

Chain of Melanocortin receptor 4 (P32245 whole entry): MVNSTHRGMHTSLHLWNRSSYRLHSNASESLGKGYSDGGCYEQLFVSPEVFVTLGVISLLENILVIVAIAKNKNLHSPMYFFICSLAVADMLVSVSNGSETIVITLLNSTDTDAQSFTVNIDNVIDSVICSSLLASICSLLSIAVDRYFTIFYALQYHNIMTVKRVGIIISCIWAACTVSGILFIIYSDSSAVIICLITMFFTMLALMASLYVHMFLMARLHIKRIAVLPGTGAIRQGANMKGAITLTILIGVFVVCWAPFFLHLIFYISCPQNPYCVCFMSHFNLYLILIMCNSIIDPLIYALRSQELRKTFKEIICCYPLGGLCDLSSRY
Chain of Vascular endothelial growth factor receptor 1 (P17948 whole entry): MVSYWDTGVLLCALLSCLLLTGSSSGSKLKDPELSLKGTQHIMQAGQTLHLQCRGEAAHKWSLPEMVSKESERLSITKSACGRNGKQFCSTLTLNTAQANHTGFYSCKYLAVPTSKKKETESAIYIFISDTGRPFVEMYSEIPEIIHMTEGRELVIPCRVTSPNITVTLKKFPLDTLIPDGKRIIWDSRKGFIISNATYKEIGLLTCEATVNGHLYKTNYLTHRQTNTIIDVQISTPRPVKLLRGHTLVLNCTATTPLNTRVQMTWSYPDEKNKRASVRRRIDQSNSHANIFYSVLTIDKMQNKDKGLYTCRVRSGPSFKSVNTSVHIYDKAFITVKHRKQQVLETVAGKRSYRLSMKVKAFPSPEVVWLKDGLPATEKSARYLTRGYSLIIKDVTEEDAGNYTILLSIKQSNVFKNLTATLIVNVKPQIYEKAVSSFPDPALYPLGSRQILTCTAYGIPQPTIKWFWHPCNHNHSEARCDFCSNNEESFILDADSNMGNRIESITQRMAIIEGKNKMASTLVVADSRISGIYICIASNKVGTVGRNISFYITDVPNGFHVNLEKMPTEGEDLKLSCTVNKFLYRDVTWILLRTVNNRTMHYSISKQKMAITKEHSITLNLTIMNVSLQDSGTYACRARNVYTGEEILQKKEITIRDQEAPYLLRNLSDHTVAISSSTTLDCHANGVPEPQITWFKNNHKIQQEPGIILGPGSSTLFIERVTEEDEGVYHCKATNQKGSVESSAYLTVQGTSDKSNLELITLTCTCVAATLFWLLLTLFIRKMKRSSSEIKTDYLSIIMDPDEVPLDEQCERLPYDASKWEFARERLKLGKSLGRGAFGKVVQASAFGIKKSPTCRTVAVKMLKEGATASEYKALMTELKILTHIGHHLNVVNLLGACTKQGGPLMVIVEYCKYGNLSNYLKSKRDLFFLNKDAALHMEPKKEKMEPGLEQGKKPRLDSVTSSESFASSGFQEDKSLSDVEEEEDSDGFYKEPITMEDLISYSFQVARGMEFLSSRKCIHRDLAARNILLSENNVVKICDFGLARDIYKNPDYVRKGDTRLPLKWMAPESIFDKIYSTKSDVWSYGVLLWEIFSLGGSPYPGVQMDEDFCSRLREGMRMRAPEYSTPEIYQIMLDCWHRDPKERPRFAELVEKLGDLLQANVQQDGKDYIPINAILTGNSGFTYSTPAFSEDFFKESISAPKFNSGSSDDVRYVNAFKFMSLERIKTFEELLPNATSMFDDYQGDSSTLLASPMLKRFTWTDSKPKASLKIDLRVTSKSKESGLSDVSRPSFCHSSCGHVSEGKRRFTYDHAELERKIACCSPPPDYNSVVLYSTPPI
Chain of Matrix metalloproteinase-9 (P14780 whole entry): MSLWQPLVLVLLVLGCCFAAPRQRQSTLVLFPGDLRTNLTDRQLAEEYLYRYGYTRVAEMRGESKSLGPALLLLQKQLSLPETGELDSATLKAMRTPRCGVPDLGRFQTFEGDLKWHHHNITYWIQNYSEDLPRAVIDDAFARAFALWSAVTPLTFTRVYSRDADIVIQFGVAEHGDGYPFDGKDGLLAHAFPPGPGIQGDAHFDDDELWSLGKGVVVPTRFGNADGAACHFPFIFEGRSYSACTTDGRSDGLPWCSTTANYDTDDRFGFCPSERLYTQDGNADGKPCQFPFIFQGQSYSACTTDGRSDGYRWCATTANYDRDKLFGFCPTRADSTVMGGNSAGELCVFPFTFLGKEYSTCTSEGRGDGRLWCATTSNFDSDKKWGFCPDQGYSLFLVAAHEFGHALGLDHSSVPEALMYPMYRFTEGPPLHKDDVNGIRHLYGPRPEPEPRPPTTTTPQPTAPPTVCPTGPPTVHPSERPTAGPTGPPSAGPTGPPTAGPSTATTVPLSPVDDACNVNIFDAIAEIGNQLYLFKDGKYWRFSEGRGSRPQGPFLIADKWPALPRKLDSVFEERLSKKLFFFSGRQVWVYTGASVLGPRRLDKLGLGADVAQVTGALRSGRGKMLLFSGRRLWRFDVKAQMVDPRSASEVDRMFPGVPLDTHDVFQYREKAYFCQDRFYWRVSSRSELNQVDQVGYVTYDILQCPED

SMILES	IC50 [1]	Ki [1]	IC50 [2]	IC50 (Leukotriene C4 synthase)	IC50 (Melanocortin receptor 4)	IC50 [3]	Ki [3]	IC50 [4]	IC50 (Adenosine receptor A1)	IC50 ([1]; read-out: IC50)	Ki ([1]; read-out: Ki)
C#C[C@]1(O)CC[C@H]2[C@@H]3[C@H](C)CC4=C(CCC(=O)C4)[C@H]3CC[C@@]21C [TIBOLONE]	Not Active	Not Active	Not Active	Not Active	Not Active	Not Active	Not Active	Not Active	Not Active	–	–
CN1C(=O)OC(C)(C)C1=O [TRIMETHADIONE]	Not Active	Not Active	Not Active	Not Active	Not Active	Not Active	Not Active	Not Active	Not Active	–	–
OC[C@@H](O)[C@@H](O)[C@H](O)[C@H](O)CO [MANNITOL]	Not Active	Not Active	Not Active	Not Active	Not Active	Not Active	Not Active	Not Active	Not Active	–	–
CCN(CC)C(=S)SSC(=S)N(CC)CC	–	–	Not Active	Not Active	Not Active	Not Active	Not Active	Not Active	Not Active	16.9 µM	5.79 µM
O=C(O)c1cc(/N=N/c2ccc(S(=O)(=O)Nc3ccccn3)cc2)ccc1O [SULFASALAZINE]	Not Active	Not Active	Not Active	Not Active	Not Active	Not Active	Not Active	Not Active	Not Active	–	–
O=C(c1ccccc1)c1ccc2n1CCC2C(=O)O (centres undefined) [KETOROLAC]	Not Active	Not Active	Not Active	Not Active	Not Active	Not Active	Not Active	Not Active	Not Active	–	–
CC[C@H](C)[C@@H](CO[C@@H](Cc1ccccc1)C(=O)N[C@@H](CCS(C)(=O)=O)C(=O)OC(C)C)NC[C@@H](N)CS	Not Active	Not Active	Not Active	Not Active	Not Active	Not Active	Not Active	Not Active	Not Active	–	–
CC(C)(C)NC[C@H](O)COc1cccc2c1CCCC2=O [LEVOBUNOLOL]	Not Active	Not Active	Not Active	Not Active	Not Active	Not Active	Not Active	Not Active	Not Active	–	–
C[N+]1(C)[C@@H]2C[C@@H](OC(=O)[C@H](CO)c3ccccc3)C[C@H]1[C@@H]1O[C@@H]12.[Br-] [METHSCOPOLAMINE BROMIDE]	Not Active	Not Active	Not Active	Not Active	Not Active	Not Active	Not Active	Not Active	Not Active	–	–
CO[C@@H]1[C@@H](OC)[C@H](C)[C@@](O)(CC(=O)O)O[C@H]1[C@H](C)[C@H]1O[C@@]2(CC[C@@](C)([C@H]3CC[C@@](C)([C@@H]4O[C@@H]([C@H]5O[C@](C)(O)[C@H](C)C[C@@H]5C)C[C@@H]4O[C@@H]4C[C@H](OC)[C@@H](OC)[C@H](C)O4)O3)O2)C[C@H](O)[C@H]1C.N [MADURAMICIN]	Not Active	Not Active	Not Active	Not Active	Not Active	Not Active	Not Active	Not Active	Not Active	–	–
Cc1nnc(NS(=O)(=O)c2ccc(N)cc2)s1 [SULFAMETHIZOLE]	Not Active	Not Active	Not Active	Not Active	Not Active	Not Active	Not Active	Not Active	Not Active	–	–
Cc1cnc(NC(=O)C2=C(O)c3ccccc3S(=O)(=O)N2C)s1 [MELOXICAM]	Not Active	Not Active	Not Active	Not Active	Not Active	Not Active	Not Active	Not Active	Not Active	–	–
CC1=C(/C=C/C(C)=C/C=C/C(C)=C/C(=O)O)C(C)(C)CCC1 [TRETINOIN]	Not Active	Not Active	Not Active	Not Active	Not Active	Not Active	Not Active	Not Active	Not Active	–	–
Cc1ccc(S(=O)(=O)NC(=O)NN2CCCCCC2)cc1 [TOLAZAMIDE]	Not Active	Not Active	Not Active	Not Active	Not Active	Not Active	Not Active	Not Active	Not Active	–	–
Cc1cccc(C)c1NC(=O)C(C)N (centres undefined) [TOCAINIDE]	Not Active	Not Active	Not Active	Not Active	Not Active	Not Active	Not Active	Not Active	Not Active	–	–
Cc1cc2c(s1)Nc1ccccc1N=C2N1CCN(C)CC1 [OLANZAPINE]	–	–	Not Active	Not Active	Not Active	–	–	Not Active	Not Active	–	–
COC(=O)Nc1nc2ccc(C(=O)c3ccccc3)cc2[nH]1 [MEBENDAZOLE]	Not Active	Not Active	Not Active	Not Active	Not Active	Not Active	Not Active	Not Active	Not Active	–	–
O=C1CC[C@@]2(O)[C@H]3Cc4ccc(O)c5c4[C@@]2(CCN3CC2CC2)[C@H]1O5 [NALTREXONE]	Not Active	Not Active	Not Active	Not Active	Not Active	Not Active	Not Active	Not Active	Not Active	–	–
CCN(CC)CCNC(=O)c1cc(Cl)c(N)cc1OC [METOCLOPRAMIDE]	Not Active	Not Active	Not Active	Not Active	Not Active	Not Active	Not Active	Not Active	Not Active	–	–
CCOc1cc(N)c(Cl)cc1C(=O)NCC1CN(Cc2ccc(F)cc2)CCO1 (centres undefined) [MOSAPRIDE]	Not Active	Not Active	Not Active	Not Active	Not Active	Not Active	Not Active	Not Active	Not Active	–	–
Cc1ccc(Cl)c(Nc2ccccc2C(=O)O)c1Cl [MECLOFENAMIC ACID]	Not Active	Not Active	Not Active	Not Active	Not Active	Not Active	Not Active	Not Active	Not Active	–	–
CN1C[C@H](CNC(=O)OCc2ccccc2)C[C@@H]2c3cccc4c3c(cn4C)C[C@H]21 [METERGOLINE]	Not Active	Not Active	Not Active	Not Active	Not Active	Not Active	Not Active	Not Active	Not Active	–	–
O=[As][O-].[Na+] [SODIUM ARSENITE]	Not Active	Not Active	Not Active	Not Active	Not Active	Not Active	Not Active	Not Active	Not Active	–	–
CC(=O)O[C@]1(C(C)=O)CC[C@H]2[C@@H]3C[C@H](C)C4=CC(=O)CC[C@]4(C)[C@H]3CC[C@@]21C [MEDROXYPROGESTERONE ACETATE]	Not Active	Not Active	Not Active	Not Active	Not Active	Not Active	Not Active	Not Active	Not Active	–	–
CCN1CCCC1CNC(=O)c1cc(S(N)(=O)=O)ccc1OC (centres undefined) [SULPIRIDE]	Not Active	Not Active	Not Active	Not Active	Not Active	Not Active	Not Active	Not Active	Not Active	–	–
CC(O)C(=O)O (centres undefined) [LACTIC ACID]	Not Active	Not Active	Not Active	Not Active	Not Active	Not Active	Not Active	Not Active	Not Active	–	–
CC(Cl)(Cl)Cl [TRICHLOROETHANE]	Not Active	Not Active	Not Active	Not Active	Not Active	Not Active	Not Active	Not Active	Not Active	–	–
CN(C)CCC=C1c2ccccc2COc2ccccc21 [DOXEPIN]	–	–	Not Active	Not Active	Not Active	–	–	Not Active	Not Active	–	–
CNCCCC12CCC(c3ccccc31)c1ccccc12 [MAPROTILINE]	–	–	Not Active	Not Active	Not Active	–	–	Not Active	Not Active	–	–
